Data published in PubChem BioAssay (NCI).
“And” between values parts separate entries of the source, which are not always exact repeats. Identical values can stand only once.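 Following 48 hours of exposure in 96-well plates, responses at five concentrations were used to interpolate endpoints linearly. Here, GI50 denotes the concentration required for 50% inhibition of growth. TGI denotes the concentration required for complete inhibition of growth.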

Legend:
Experiment in all cases: NCI tumour cell line growth inhibition, 48 h
SF-539 CNS = tested on: SF-539 CNS
SNB-19 CNS = tested on: SNB-19 CNS
OVCAR-3 ovarian = tested on: OVCAR-3 ovarian
IGROV1 ovarian = tested on: IGROV1 ovarian
SR leukemia = tested on: SR leukemia
MDA-MB-435 = tested on: MDA-MB-435
OVCAR-5 ovarian = tested on: OVCAR-5 ovarian
T-47D breast = tested on: T-47D breast
NCI-H522 lung = tested on: NCI-H522 lung
SF-295 CNS = tested on: SF-295 CNS

| SMILES | GI50 (SF-539 CNS) | TGI (SF-539 CNS) | GI50 (SNB-19 CNS) | TGI (SNB-19 CNS) | GI50 (OVCAR-3 ovarian) | TGI (OVCAR-3 ovarian) | GI50 (IGROV1 ovarian) | TGI (IGROV1 ovarian) | GI50 (SR leukemia) | TGI (SR leukemia) | GI50 (MDA-MB-435) | TGI (MDA-MB-435) | GI50 (OVCAR-5 ovarian) | TGI (OVCAR-5 ovarian) | GI50 (T-47D breast) | TGI (T-47D breast) | GI50 (NCI-H522 lung) | TGI (NCI-H522 lung) | GI50 (SF-295 CNS) | TGI (SF-295 CNS) |
| --- | --- | --- | --- | --- | --- | --- | --- | --- | --- | --- | --- | --- | --- | --- | --- | --- | --- | --- | --- | --- |
| CC(C)NCCCNC1=C(Cl)C(=O)c2ccccc2C1=O | 16.5 µM | 31.8 µM | 12.8 µM | 26 µM | 1.83 µM | 3.58 µM | 2.33 µM | 5.16 µM | 2.27 µM | 6.08 µM | 2.1 µM | 4.07 µM | 14.3 µM | 31.1 µM | 8.02 µM | 33.8 µM | 8.69 µM | 21.8 µM | – | – |
| CO/N=C(\COc1ccc2c(=O)cc(-c3ccccc3)oc2c1)c1ccc(OC)cc1 | > 100 µM | > 100 µM | – | – | 23.2 µM | 44.8 µM | > 100 µM | > 100 µM | > 100 µM | > 100 µM | 30 µM | > 100 µM | > 100 µM | > 100 µM | 53.5 µM | > 100 µM | > 100 µM | > 100 µM | 21 µM | 46.5 µM |
| CN1CCN(c2ccc3nc(-c4ccc5nc(-c6ccc(C(F)(F)F)cc6)[nH]c5c4)[nH]c3c2)CC1 | 1.62 µM | 3.09 µM | – | – | 1.58 µM | 3.1 µM | 6.13 µM | 21.7 µM | 1.7 µM | 5.11 µM | 1.66 µM | 3.1 µM | 2.68 µM | 6.58 µM | 1.38 µM | 3.33 µM | 1.47 µM | 3.39 µM | 2.44 µM | 9.51 µM |
| CCCCCCCCOC(=O)c1cc(O)c(O)c(O)c1 | 2.52 µM | 18.2 µM | 5.27 µM | > 58.9 µM | 2.03 µM | 14.9 µM | 0.913 µM | 4.88 µM | 0.352 µM | 10.3 µM | 1.53 µM | 16.5 µM | 12.5 µM | 52.9 µM | 2.61 µM | 21.8 µM | – | – | 2.23 µM | 8.47 µM |
| COc1ccc(CNCCCN2C(=O)c3ccc4c5c(ccc(c35)C2=O)C(=O)N(CCCNCCCCNCCCN)C4=O)c(OC)c1OC | 2.23 µM | 5.3 µM | 1.42 µM | 11.4 µM | 1.17 µM | 2.48 µM | 1.54 µM | 12.5 µM | 1.31 µM | 17.4 µM | 1.17 µM | 6.57 µM | – | – | 0.335 µM | 1.88 µM | – | – | 2.35 µM | 15.9 µM |
| C[C@]1(O)CC(=O)[C@]2(O)C3=C(C=C[C@]2(O)C1)C(=O)c1c(O)cccc1C3=O | 4.67 µM | 17 µM | 13.6 µM | 26.5 µM | 1.23 µM | 2.62 µM | – | – | 0.635 µM | 4.95 µM | 1.85 µM | 3.44 µM | 6.51 µM | 19.8 µM | 1.85 µM | 4.57 µM | – | – | 18.3 µM | 34.4 µM |
| S=C1SC2(CCCCCC2)NC2=C1CCCCC2 | – | > 100 µM | – | 87.5 µM | – | > 100 µM | – | > 100 µM | – | 80.4 µM | – | > 100 µM | – | > 100 µM | – | > 100 µM | – | – | – | 99 µM |
| CC(=O)OC1C(O)COC(Oc2c(C)c3c4c(c2O)[C@@H](C)CC[C@@H]4[C@@H](C)C[C@H]3C=C(C)C)C1O (some centres not stated) | – | – | 23.4 µM | 49.6 µM | 13.5 µM | 28.2 µM | 28.9 µM | > 100 µM | 3.87 µM | 19.1 µM | 24 µM | 67.4 µM | 23.2 µM | 47.9 µM | 39.4 µM | > 100 µM | 30.9 µM | > 100 µM | 18.1 µM | 35.7 µM |
| CCc1nc2cc(/C=C/C(=O)NO)c(F)cc2c(=O)n1CCc1ccccc1 | 0.874 µM | 5.8 µM | 1.32 µM | 12.4 µM | 0.385 µM | 4.76 µM | – | – | 0.731 µM | > 100 µM | 1.2 µM | 10.2 µM | 1.61 µM | 12.6 µM | 0.29 µM | 4.95 µM | 0.502 µM | 3.98 µM | 1.89 µM | 4.35 µM |
| CCN(CC)CCNc1ccc(CO)c2sc3ccccc3c(=O)c12 | 4.53 µM and 7.78 µM and 16.7 µM | 24.1 µM [middle of 4 runs] | 3.54 µM and 13.3 µM and 14.1 µM | 29.1 µM [middle of 4 runs] | – | 20 µM [middle of 4 runs] | – | – | 2.29 µM | – | 2.49 µM | 7.56 µM and 11.3 µM | 5.05 µM | 25.1 µM [middle of 4 runs] | 4.84 µM | 17.8 µM and 28.6 µM | 1.48 µM and 8.14 µM | – | 2.98 µM and 5.31 µM | 21.1 µM [middle of 4 runs] |
| CC(=O)OC1CC(C)c2c1ncnc2N1CCN(C(=O)OC(C)(C)C)CC1 (configuration not stated) | 30.8 µM | > 100 µM | 78.5 µM | > 100 µM | 32.3 µM | 82.7 µM | 92.5 µM | > 100 µM | 21.6 µM | 63.7 µM | 19.8 µM | 41 µM | 99.2 µM | > 100 µM | 54 µM | > 100 µM | 22.6 µM | 47.2 µM | – | – |
